The target in assay [1] is T1, AKR1D1 (human steroid 5β-reductase) (Homo sapiens, UniProt P51857).
T1 sequence (P51857 1-326): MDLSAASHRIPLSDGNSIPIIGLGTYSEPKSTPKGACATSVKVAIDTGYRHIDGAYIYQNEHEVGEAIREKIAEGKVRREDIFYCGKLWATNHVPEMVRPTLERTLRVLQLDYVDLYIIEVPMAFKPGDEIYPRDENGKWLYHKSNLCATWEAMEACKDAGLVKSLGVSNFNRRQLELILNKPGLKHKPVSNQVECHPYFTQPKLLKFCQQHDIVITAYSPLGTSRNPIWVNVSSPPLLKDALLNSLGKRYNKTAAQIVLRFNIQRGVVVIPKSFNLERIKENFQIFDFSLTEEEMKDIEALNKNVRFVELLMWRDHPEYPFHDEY
In words: stopped-flow competition with excess NADPH, energy transfer fluorescence. The class given is binding. The settings on record: dissociation rate constant from binary complex; 37 °C, pH 6.0, 4 % acetonitrile.

Assay [2] deals with T1, AKR1D1 (human steroid 5β-reductase). In words: fluorescence titration. The class given is binding.
The target is the same in assay [3]. Kind of assay: stopped-flow binding, energy transfer fluorescence. The settings on record: biphasic binding to free enzyme; 37 °C, pH 6.0, 4 % acetonitrile.

In assay [1], `NC(=O)c1ccc[n+]([C@@H]2O[C@H](COP(=O)(O)OP(=O)(O)OC[C@H]3O[C@@H](n4cnc5c(N)ncnc54)[C@H](OP(=O)(O)O)[C@@H]3O)[C@@H](O)[C@H]2O)c1` [NADP^+] showed a koff of 0.36 ± 0.01 s⁻¹.

Take `CC(C)(C)NC(=O)[C@H]1CC[C@H]2[C@@H]3CC[C@H]4NC(=O)C=C[C@]4(C)[C@H]3CC[C@]12C` [finasteride]: in assay [2], the dissociation constant Kd was 1.14 ± 0.09 µM. In the case of `NC(=O)C1=CN([C@@H]2O[C@H](COP(=O)(O)OP(=O)(O)OC[C@H]3O[C@@H](n4cnc5c(N)ncnc54)[C@H](OP(=O)(O)O)[C@@H]3O)[C@@H](O)[C@H]2O)C=CC1` [NADPH], the “stopped-flow binding, energy transfer fluorescence” value in assay [3] is “AKR1D1 was mixed with NADPH and the process of NADPH binding to AKR1D1 was directly monitored”. The molecule `CC(C)CCC[C@@H](C)[C@H]1CC[C@H]2[C@@H]3[C@H](O)CC4=CC(=O)CC[C@]4(C)[C@H]3CC[C@]12C` [7α-hydroxycholestenone, 7α-hydroxy-4-cholesten-3-one] showed a Kd in assay [2] of 1.3 ± 0.1 µM.
